# Experimental data taken from patent publication US10370369B2, “Acid addition salt of 3-aminoquinuclidine which does not exhibit deliquescence” (YUKI GOSEI KOGYO CO. LTD., priority 2015, dated 2019).
# Test: Deliquescence Test (Experimental Example 2, salts of (R)-3-aminoquinuclidine)
# Assay type: physicochemical
# Details: about 0.5 g allowed to stand for 1 hour, 24 to 25° C., humidity of 74 to 76%, visual evaluation
# Protocol: The acid addition salts (about 0.5 g) of (R)-3-aminoquinuclidine obtained in Examples 7 to 13, Referential Example 2, and Comparative Examples 10 to 17 were allowed to stand for 1 hour, under the conditions of 24 to 25° C. and a humidity of 74 to 76%, and a deliquescence was observed by a visual evaluation.
row,SMILES,Deliquescence
1,"Br.Br.N[C@H]1CN2CCC1CC2 [Comparative Example 10, (R)-3-aminoquinuclidine-dihydrobromide]",Gradually
2,"N[C@H]1CN2CCC1CC2.O=[N+]([O-])O.O=[N+]([O-])O [Comparative Example 11, (R)-3-aminoquinuclidine.dinitrate]",Gradually
3,"CC(=O)O.CC(=O)O.N[C@H]1CN2CCC1CC2 [Comparative Example 12, (R)-3-aminoquinuclidine.diacetate]",Immediately
4,"CCC(=O)O.N[C@H]1CN2CCC1CC2 [Comparative Example 13, (R)-3-aminoquinuclidine.monopropionate]",Immediately
5,"N[C@H]1CN2CCC1CC2.O=C(O)c1ccccc1.O=C(O)c1ccccc1 [Comparative Example 14, (R)-3-aminoquinuclidine.dibenzoate]",Immediately
6,"N[C@H]1CN2CCC1CC2.O=C(O)/C=C\C(=O)O [Comparative Example 15, (R)-3-aminoquinuclidine.monomaleate]",Gradually
7,"N[C@H]1CN2CCC1CC2.N[C@H]1CN2CCC1CC2.N[C@H]1CN2CCC1CC2.O=C(O)CC(O)(CC(=O)O)C(=O)O.O=C(O)CC(O)(CC(=O)O)C(=O)O [Comparative Example 16, (R)-3-aminoquinuclidine.2/3citrate]",Immediately
8,"CS(=O)(=O)O.N[C@H]1CN2CCC1CC2 [Comparative Example 17, (R)-3-aminoquinuclidine.monomesylate]",Gradually
9,"N[C@H]1CN2CCC1CC2.N[C@H]1CN2CCC1CC2.O=P(O)(O)O.O=P(O)(O)O.O=P(O)(O)O [Example 7, (R)-3-aminoquinuclidine.sesquiphosphate]",Not deliquesce
10,"N[C@H]1CN2CCC1CC2.O=S(=O)(O)O [Example 8, (R)-3-aminoquinuclidine.monosulfate]",Not deliquesce
11,"N[C@H]1CN2CCC1CC2.O=C(O)/C=C/C(=O)O [Example 9, (R)-3-aminoquinuclidine.monofumarate]",Not deliquesce
12,"N[C@H]1CN2CCC1CC2.O=C(O)c1ccc(C(=O)O)cc1 [Example 10, (R)-3-aminoquinuclidine.monoterephthalate]",Not deliquesce
13,"N[C@H]1CN2CCC1CC2.O=C(O)C(=O)O [Example 11, (R)-3-aminoquinuclidine.monooxalate]",Not deliquesce
14,"Cc1ccc(S(=O)(=O)O)cc1.N[C@H]1CN2CCC1CC2 [Example 12, (R)-3-aminoquinuclidine.mono-p-toluenesulfonate]",Not deliquesce
15,"CC1(C)C2CCC1(CS(=O)(=O)O)C(=O)C2.N[C@H]1CN2CCC1CC2 [Example 13, (R)-3-aminoquinuclidine.mono-(−)-10-camphorsulfonate]",Not deliquesce
16,"Cl.Cl.N[C@H]1CN2CCC1CC2 [Referential Example 2, (R)-3-aminoquinuclidine.dihydrochloride]",Immediately

# Test: Deliquescence Test (Experimental Example 3, salts of (S)-3-aminoquinuclidine)
# Assay type: physicochemical
# Details: about 0.5 g allowed to stand for 1 hour, 24 to 26° C., humidity of 75 to 78%, visual evaluation
# Protocol: The acid addition salts (about 0.5 g) of (S)-3-aminoquinuclidine obtained in Examples 14 to 19, and Comparative Examples 18 to 19 were allowed to stand for 1 hour, under the conditions of 24 to 26° C., and a humidity of 75 to 78%, and a deliquescence was observed by a visual evaluation.
row,SMILES,Deliquescence
1,"N[C@@H]1CN2CCC1CC2.O=[N+]([O-])O.O=[N+]([O-])O [Comparative Example 18, (S)-3-aminoquinuclidine.dinitrate]",Gradually
2,"CC(=O)O.CC(=O)O.N[C@@H]1CN2CCC1CC2 [Comparative Example 19, (S)-3-aminoquinuclidine.diacetate]",Immediately
3,"N[C@@H]1CN2CCC1CC2.N[C@@H]1CN2CCC1CC2.O=P(O)(O)O.O=P(O)(O)O.O=P(O)(O)O [Example 14, (S)-3-aminoquinuclidine.sesquiphosphate]",Not deliquesce
4,"N[C@@H]1CN2CCC1CC2.O=S(=O)(O)O [Example 15, (S)-3-aminoquinuclidine.monosulfate]",Not deliquesce
5,"N[C@@H]1CN2CCC1CC2.O=C(O)/C=C/C(=O)O [Example 16, (S)-3-aminoquinuclidine.monofumarate]",Not deliquesce
6,"N[C@@H]1CN2CCC1CC2.O=C(O)c1ccc(C(=O)O)cc1 [Example 17, (S)-3-aminoquinuclidine.monoterephthalate]",Not deliquesce
7,"N[C@@H]1CN2CCC1CC2.O=C(O)C(=O)O [Example 18, (S)-3-aminoquinuclidine.monooxalate]",Not deliquesce
8,"Cc1ccc(S(=O)(=O)O)cc1.N[C@@H]1CN2CCC1CC2 [Example 19, (S)-3-aminoquinuclidine.mono-p-toluenesulfonate]",Not deliquesce
9,"Cl.Cl.N[C@@H]1CN2CCC1CC2 [Referential Example 4, (S)-3-aminoquinuclidine.dihydrochloride]",Immediately

# Test: Deliquescence Test (Experimental Example 1, salts of racemic 3-aminoquinuclidine)
# Assay type: physicochemical
# Details: about 0.5 g allowed to stand for 1 hour, 25 to 27° C., humidity of 76 to 82%, visual evaluation
# Protocol: racemic 3-aminoquinuclidine.dihydrochloride of reagent, and the acid addition salts (about 0.5 g) of racemic 3-aminoquinuclidine obtained in Examples 1 to 6 and Comparative Examples 1 to 9 were allowed to stand for 1 hour, under the condition of 25 to 27° C., and a humidity of 76 to 82%, and a deliquescence was observed by a visual evaluation.
row,SMILES,Deliquescence
1,"Br.Br.NC1CN2CCC1CC2 (racemic) [Comparative Example 1, racemic 3-aminoquinuclidine-dihydrobromide]",Gradually
2,"NC1CN2CCC1CC2.O=S(=O)(O)O (racemic) [Comparative Example 2, racemic 3-aminoquinuclidine.monosulfate]",Gradually
3,"NC1CN2CCC1CC2.O=[N+]([O-])O.O=[N+]([O-])O (racemic) [Comparative Example 3, racemic 3-aminoquinuclidine.dinitrate]",Gradually
4,"CC(=O)O.CC(=O)O.NC1CN2CCC1CC2 (racemic) [Comparative Example 4, racemic 3-aminoquinuclidine.diacetate]",Immediately
5,"CCC(=O)O.NC1CN2CCC1CC2 (racemic) [Comparative Example 5, racemic 3-aminoquinuclidine.monopropionate]",Immediately
6,"NC1CN2CCC1CC2.O=C(O)c1ccccc1.O=C(O)c1ccccc1 (racemic) [Comparative Example 6, racemic 3-aminoquinuclidine.dibenzoate]",Gradually
7,"NC1CN2CCC1CC2.O=C(O)/C=C\C(=O)O (racemic) [Comparative Example 7, racemic 3-aminoquinuclidine.monomaleate]",Gradually
8,"NC1CN2CCC1CC2.NC1CN2CCC1CC2.NC1CN2CCC1CC2.O=C(O)CC(O)(CC(=O)O)C(=O)O.O=C(O)CC(O)(CC(=O)O)C(=O)O (racemic) [Comparative Example 8, racemic 3-aminoquinuclidine.2/3 citrate]",Immediately
9,"CS(=O)(=O)O.NC1CN2CCC1CC2 (racemic) [Comparative Example 9, racemic 3-aminoquinuclidine.monomesylate]",Gradually
10,"NC1CN2CCC1CC2 (racemic) [Example 1, racemic 3-aminoquinuclidine.sesquiphosphate]",Not deliquesce
11,"NC1CN2CCC1CC2.O=C(O)/C=C/C(=O)O (racemic) [Example 2, racemic 3-aminoquinuclidine.monofumarate]",Not deliquesce
12,"NC1CN2CCC1CC2.O=C(O)c1ccc(C(=O)O)cc1 (racemic) [Example 3, racemic 3-aminoquinuclidine.monoterephthalate]",Not deliquesce
13,"NC1CN2CCC1CC2.O=C(O)C(=O)O (racemic) [Example 4, racemic 3-aminoquinuclidine.monooxalate]",Not deliquesce
14,"Cc1ccc(S(=O)(=O)O)cc1.NC1CN2CCC1CC2 (racemic) [Example 5, racemic 3-aminoquinuclidine.mono-p-toluenesulfonate]",Not deliquesce
15,"CC1(C)C2CCC1(CS(=O)(=O)O)C(=O)C2.NC1CN2CCC1CC2 (racemic) [Example 6, racemic 3-aminoquinuclidine.mono-(±)-10-camphorsulfonate]",Not deliquesce
16,"Cl.Cl.NC1CN2CCC1CC2 (racemic) [Reagent, racemic 3-aminoquinuclidine.dihydrochloride]",Immediately
